We go through 17 compounds from PubChem BioAssay AID2060620 (Molecular Pharmacology Branch, DTP, NCI, 2025).

This assay concerns 328373-195-R-J1-PDC complex spheroids, viability % test/control. The experiment in a line: Anticancer human tumor 328373-195-R-J1-PDC patient-derived head and neck squamous carcinoma cell line growth inhibition [CLK]. To be noted: for viability, T/C: stronger effect = lower value. From the text:
A high-throughput screen of multi-cell type tumor spheroids was designed to identify active combinations of […] and targeted small molecules. Complex spheroids include a stromal component modeled by human endothelial cells (HUVEC) and fibroblasts modeled by human mesenchymal stem cells (MSCs). The concentration ranges selected for each drug and investigational agent were based upon clinically achievable concentrations if the clinical Cmax of the agent was known.
Compounds. The drugs and investigational agents: cirtuvivint (SM08502; NSC835563), CC-671 (NSC850746), vemurafenib (NSC761431), tapotoclax (NSC804041), sotorasib (NSC818433), adagrasib (NSC831453), MRTX-1133 (NSC836407), BAY2416964 (NSC825713), copanlisib (NSC816437), inavolisib (NSC800729), abemaciclib (NSC768073), osimertinib (NSC779217), entinostat (NSC756642), eltanexor (KPT-8602, NSC794443), venetoclax (NSC766270), ceralasertib (NSC777638), bortezomib (NSC756655), olaparib (NSC753686), talazoparib (NSC767125), alisertib (NSC759677), peposertib (NSC802822), gemcitabine (NSC613327), 5-fluorouracil (NSC19893), SN-38 (NSC673596), oxaliplatin (NSC266046), paclitaxel (NSC125973), and doxorubicin (NSC123127), were obtained from the National Cancer Institute (NCI) Developmental Therapeutics Program Chemical Repository. The FDA-approved anticancer drug set is available from the Developmental Therapeutics Program at https://dtp.cancer.gov/organization/dscb/obtaining/available plates.htm. […] The stock solutions were prepared in dimethyl sulfoxide (DMSO, Sigma-Aldrich, St. Louis, MO, cat. D2650), except for the platinum complexes which were prepared in saline (Quality Biological, Gaithersburg, MD, cat. 114-055-101), at 800-fold the tested concentration and stored at -70 degrees C prior to their use. All drugs and investigational agents were tested over a range starting from a high concentration at or near the clinical Cmax and decreasing in half-log increments. If the clinical Cmax for an agent had not been determined, the highest concentration tested was 10 microM.
Cell Culture. All cells were maintained in an incubator at 37 degrees C and 5% CO2 with 95% humidity. The PDC lines were cultured according to standard operating procedures established by the NCI PDMR. Briefly, all PDCs were thawed and cultured in Matrigel-coated flasks prepared with a working solution of 1X Ham's F-12 nutrient mix, without supplementation (Invitrogen, Waltham, MA, cat. 11765054), 100 U/mL penicillin-streptomycin (Invitrogen, cat. 15140122), and 2.5% Matrigel (Corning Inc., Corning, NY, cat. 354248) for the first three passages. The 947758-054-R-J2-PDC line was cultured in 6B/Colon 1A media, which includes advanced DMEM/F-12 (Thermo Fisher Scientific, cat. 12634028), 10 mM HEPES (Thermo Fisher Scientific, cat. 15630080), 1X GlutaMAX supplement (Thermo Fisher Scientific, cat. 35050061), 0.1 mg/mL primocin (InvivoGen, cat. ant-pm-2), 10% defined fetal bovine serum, heat inactivated (HyClone Laboratories Inc., cat. SH30070.03HI), 1.25 mM N-Acetyl-L-cysteine (Sigma-Aldrich, cat. A9165), 10 mM nicotinamide (Sigma-Aldrich, cat. N0636), 1X B-27 supplement (Thermo Fisher Scientific, cat. 17504044), 1X N-2 supplement (Thermo Fisher Scientific, cat. 17502048), and 10 microM Y-27632 dihydrochloride (Tocris Bioscience, cat. 1254). The 876862-298-R-J1-PDC was cultured in 6E media, which includes all 6B/Colon 1A media components plus 50% L-WRN conditioned media (ATCC, cat. CRL-3276), 50 ng/mL recombinant human EGF recombinant protein (hEGF; Thermo Fisher Scientific, cat. PHG0311), 10 ng/mL recombinant human fibroblast growth factor 10 (hGFG-10; PeproTech, cat. 100-26), 1 ng/mL recombinant human fibroblast growth factor 2 (hFGF-2; PeproTech, cat. 100-18B), and 1 µM prostaglandin E2 (PGE2; Tocris, cat. 2296). The 227483-062-R1-J1-PDC line was cultured in Panc media, containing all 6E components except hFGF-2, with the addition of 500 nM SB-431542 (Selleckchem, cat. S1067) and 10 nM gastrin (Tocris, cat. 3006). […]

Where “and” joins values, the source holds several entries; their conditions need not be identical. Identical values can stand only once.
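Also: spheroids exposed to the agents for 7 days.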

One may read the viability, T/C as the ratio of treated to control. As usually defined, the IC50 is the midpoint of a concentration-inhibition curve. On to `C#Cc1c(F)ccc2cc(O)cc(-c3ncc4c(N5CC6CCC(C5)N6)nc(OCC56CCCN5CC(F)C6)nc4c3F)c12` (stereo not drawn), for which the viability, T/C is 99.7% and 97.3% (compound 0.0316 µM); 85.4% and 93.6% (compound 0.1 µM); 108% and 98.6% (compound 0.316 µM); 96.1% and 92.8% (compound 1 µM); 118% and 111% (compound 3.16 µM); 89.6% and 94.6% (compound 10 µM). Also, for the setting “curve of compound”, the IC50 was over 10000 nM.

As for `C=C(F)C(=O)N1CCN(c2nc(OCC3CCCN3C)nc3c2CCN(c2cccc4cccc(Cl)c24)C3)CC1CC#N` (stereo not drawn), the viability, T/C by setting is: (compound 0.0316 µM) 94.1% and 94.7%; (compound 0.1 µM) 89.7% and 93.1%; (compound 0.316 µM) 77.7% and 114%; (compound 1 µM) 90.5% and 84.6%; (compound 3.16 µM) 53.7% and 59.2%; (compound 10 µM) 0.17% and 3%. Moreover, for the setting “curve of compound”, the IC50 is 3420 nM and 3750 nM.

As to `C=CC(=O)N1CCN(c2nc(=O)n(-c3c(C)ccnc3C(C)C)c3nc(-c4c(O)cccc4F)c(F)cc23)C(C)C1` (stereo not drawn), the viability, T/C reads like this: (compound 0.0316 µM) 84.3% and 93.1%; (compound 0.1 µM) 89.4% and 95.1%; (compound 0.316 µM) 93.2% and 106%; (compound 1 µM) 98.8% and 87.5%; (compound 3.16 µM) 96.5% and 100%; (compound 10 µM) 77.4% and 74.5%. The IC50 (curve of compound) is over 10000 nM.

For the compound `C=CC(=O)Nc1cc(Nc2nccc(-c3cn(C)c4ccccc34)n2)c(OC)cc1N(C)CCN(C)C`, the viability, T/C was 97.9% and 96% (compound 0.000949 µM); 96.8% and 91.2% (compound 0.003 µM); 94% and 91.6% (compound 0.00949 µM); 94.2% and 92.4% (compound 0.03 µM); 83.8% and 91.1% (compound 0.0949 µM); 91.3% and 84.8% (compound 0.3 µM). The IC50 (curve of compound) was over 300 nM.

`CC(C)CC(NC(=O)C(Cc1ccccc1)NC(=O)c1cnccn1)B(O)O` (stereo not drawn): the viability, T/C is, setting by setting: (compound 0.000949 µM) 97.8% and 115%; (compound 0.003 µM) 8.65% and 3.9%; (compound 0.00949 µM) 1.43% and 0.2%; (compound 0.03 µM) 1.56% and 0.3%; (compound 0.0949 µM) 0.16%; (compound 0.3 µM) 0.85% and 0.2%. Besides, the IC50 (curve of compound) was 1.76 nM and 1.86 nM.

On to `CC(CO)NC(=O)c1cc(-c2ccc(Cl)cc2)nn(-c2cnn(C)c2)c1=O` (stereo not drawn), for which the viability, T/C was 101% and 99.6% (compound 0.0316 µM); 105% and 97% (compound 0.1 µM); 105% and 113% (compound 0.316 µM); 112% and 109% (compound 1 µM); 112% and 119% (compound 3.16 µM); 88.7% and 91.8% (compound 10 µM). Also, the IC50 (curve of compound) is over 10000 nM.

With `CC(Nc1ccc2c(c1)OCCn1cc(N3C(=O)OCC3C(F)F)nc1-2)C(N)=O` (stereo not drawn), the viability, T/C (compound 0.0316 µM) is 86% and 91.1%; the viability, T/C (compound 0.1 µM) was 76.5% and 86.9%; the viability, T/C (compound 0.316 µM) was 77.7% and 75.1%; the viability, T/C (compound 1 µM) is 73.9% and 78.2%; the viability, T/C (compound 3.16 µM) was 53.4% and 56.5%; the viability, T/C (compound 10 µM) is 40% and 44.6%. The IC50 (curve of compound) is 4340 nM and 6460 nM.

For `CC1(C)CCC(CN2CCN(c3ccc(C(=O)NS(=O)(=O)c4ccc(NCC5CCOCC5)c([N+](=O)[O-])c4)c(Oc4cnc5[nH]ccc5c4)c3)CC2)=C(c2ccc(Cl)cc2)C1`, the viability, T/C runs as follows: (compound 0.0316 µM) 103% and 85%; (compound 0.1 µM) 88.8% and 76.7%; (compound 0.316 µM) 95.1% and 98.1%; (compound 1 µM) 90% and 84%; (compound 3.16 µM) 81.7% and 74.5%; (compound 10 µM) 25.7% and 8.47%. Also, the IC50 (curve of compound) is 6040 nM and 4850 nM.

For `CCCS(=O)(=O)Nc1ccc(F)c(C(=O)c2c[nH]c3ncc(-c4ccc(Cl)cc4)cc23)c1F`, the viability, T/C runs as follows: (compound 0.0316 µM) 99.5% and 99.4%; (compound 0.1 µM) 91.2% and 92.6%; (compound 0.316 µM) 92.8% and 95.1%; (compound 1 µM) 91.2% and 83.6%; (compound 3.16 µM) 92.6% and 94.8%; (compound 10 µM) 82.3% and 109%. Moreover, for the setting “curve of compound”, the IC50 is over 10000 nM.

On to `CCN1CCN(Cc2ccc(Nc3ncc(F)c(-c4cc(F)c5nc(C)n(C(C)C)c5c4)n3)nc2)CC1`, for which the viability, T/C (compound 0.00316 µM) was 101% and 89.8%; the viability, T/C (compound 0.01 µM) was 77.4% and 78.7%; the viability, T/C (compound 0.0316 µM) was 82.7% and 83.1%; the viability, T/C (compound 0.1 µM) was 77.4% and 78.6%; the viability, T/C (compound 0.316 µM) is 64.9% and 69.7%; the viability, T/C (compound 1 µM) was 59.8% and 52.3%. Also, the IC50 (curve of compound) was over 1000 nM.

For `CCc1c2c(nc3ccc(O)cc13)-c1cc3c(c(=O)n1C2)COC(=O)[C@]3(O)CC`, the viability, T/C is 12.7% and 12.1% (compound 0.00316 µM); 3.27% and 1.07% (compound 0.01 µM); 1.41% and 1.91% (compound 0.0316 µM); 3.19% and 1.33% (compound 0.1 µM); 1.53% and 0.43% (compound 0.316 µM); 2.07% and 1.46% (compound 1 µM). For the same compound, the IC50 (curve of compound) is under 3.16 nM.

For the compound `CN1CCN(c2cc(C(=O)Nc3cc4cc(-c5cnn(C)c5)ccc4cn3)ccn2)CC1`, the viability, T/C by setting is: (compound 0.0316 µM) 102% [middle of 12 runs]; (compound 0.1 µM) 87.1% [middle of 12 runs]; (compound 0.316 µM) 30.6% [middle of 12 runs]; (compound 1 µM) 2.6% [middle of 12 runs]; (compound 3.16 µM) 1.02% [middle of 12 runs]; (compound 10 µM) 0.18% [middle of 11 runs]. Also, the IC50 (compound alone, run of 08/14/2023) was 209 nM [middle of 12 runs].

For `COC1C=CCC(C)C(C)S(=O)(=O)NC(=O)c2ccc3c(c2)N(CC2CCC21)CC1(CCCc2cc(Cl)ccc21)CO3` (stereo not drawn), the viability, T/C runs as follows: (compound 0.0316 µM) 93.3% and 98.1%; (compound 0.1 µM) 90.6% and 96.7%; (compound 0.316 µM) 101% and 103%; (compound 1 µM) 96.7% and 93.2%; (compound 3.16 µM) 77.2% and 69.3%. For the same compound, the IC50 (curve of compound) was 8470 nM and 4400 nM.

`COc1c(OCCCN2CCOCC2)ccc2c3n(c(=NC(=O)c4cnc(N)nc4)nc12)CCN3`: the viability, T/C reads like this: (compound 0.00316 µM) 98.7% and 88.6%; (compound 0.01 µM) 87.2% and 84.5%; (compound 0.0316 µM) 64.5% and 74.9%; (compound 0.1 µM) 51.9% and 66.5%; (compound 0.316 µM) 19.2% and 24.7%; (compound 1 µM) 10.7% and 7.66%. Further, the IC50 (curve of compound) was 80.1 nM and 152 nM.

In the case of `Cn1ncnc1[C@H]1c2n[nH]c(=O)c3cc(F)cc(c23)N[C@@H]1c1ccc(F)cc1`, the viability, T/C reads like this: (compound 0.000316 µM) 98.5% and 113%; (compound 0.001 µM) 72.2% and 90.1%; (compound 0.00316 µM) 90.6% and 93.4%; (compound 0.01 µM) 84.6% and 92.9%; (compound 0.0316 µM) 95.3% and 107%; (compound 0.1 µM) 73% and 77.7%. Also, the IC50 (curve of compound) is over 100 nM.

For the compound `NC(=O)C(=Cn1cnc(-c2cc(C(F)(F)F)cc(C(F)(F)F)c2)n1)c1cncnc1`, the viability, T/C is 76.3% and 71.8% (compound 0.00949 µM); 38.3% and 37.8% (compound 0.03 µM); 2.22% and 0.66% (compound 0.0949 µM); 1.05% and 0.37% (compound 0.3 µM); 0.16% and 0.11% (compound 0.949 µM); 1.51% and 0.06% (compound 3 µM). Moreover, for the setting “curve of compound”, the IC50 was 21.1 nM and 19.8 nM.

Take `Nc1ccccc1NC(=O)c1ccc(CNC(=O)OCc2cccnc2)cc1`: the viability, T/C by setting is: (compound 0.0316 µM) 87.1% and 84.6%; (compound 0.1 µM) 71.8% and 68.4%; (compound 0.316 µM) 54.6% and 49.4%; (compound 1 µM) 38.6% and 28.9%; (compound 3.16 µM) 31.2% and 21.1%; (compound 10 µM) 7.32% and 4.87%. Further, the IC50 (curve of compound) is 515 nM and 299 nM.
